Data published in US20100311756A1, “METHODS FOR DELAYING THE PROGRESSION OF AT LEAST ONE OF CARDIAC HYPERTROPHY, CARDIAC REMODELING OR LEFT VENTRICULAR FUNCTION OR THE ONSET OF HEART FAILURE IN SUBJECTS IN NEED OF TREATMENT THEREOF” (TAKEDA PHARMACEUTICALS NORTH AMERICA, INC., priority 2009, published 2010).
“Also recorded” adds a separate entry of the source. Marks after values point to notes of the source that are not given here.

Test system: TAC mice
Test: Transverse aortic constriction (TAC) in mice, Protocol 1: febuxostat for 8 days beginning ~60 min after TAC
Type: in vivo
Description: • Mice. Male C57/BL6 mice at 8-9 weeks of age were purchased from Jackson Laboratories (Bar Harbor, Me.) for use in this study. Mice were housed in an air-conditioned room with a 12-hour:12-hour light-dark cycle, received standard mouse chow, and drank tap water. This study was approved by the Institutional Animal Care and Use Committee of the University of Minnesota. • Experimental Protocol 1. This protocol was designed to determine whether febuxostat (2-[3-cyano-4-(2-methylpropoxy)phenyl]-4-methylthiazole-5-carboxylic acid) treatment, beginning immediately after the onset of acute pressure overload, could protect against transverse aortic constriction (TAC)-induced left ventricular (LV) hypertrophy, dysfunction and mortality. Three treatment groups were included (See Table 1, below): sham-operated mice (n=20), TAC mice treated with vehicle (0.5% methylcellulose) (n=30), and TAC mice treated with febuxostat (suspension in 0.5% methylcellulose) (n=30). To generate LV hypertrophy in a short time period with a significant incidence of cardiac mortality, TAC was created by ligating the transverse aorta against a 27 G needle to create severe LV pressure overload. Since mice tend to take in less water and food during the first 1-3 days after the TAC procedure, febuxostat (5 mg/kg/day in 250 μl vehicle) or vehicle (250 μl) was administered daily by oral gavage for a total of 8 days, with the first dose administered on the day of the surgery after the animal awoke from anesthesia (˜60 min after the TAC procedure). On the eighth day, LV function was assessed by echocardiography approximately 1 hour after the last febuxostat or vehicle dose. Approximately 3 hours after echocardiographic evaluation (4 hours after the last febuxostat or vehicle dose), the mice were weighed and blood samples collected. The animals were euthanized and the heart and lungs excised; the right and left atria were trimmed away, and the ventricles and lungs were weighed. Tissue from the left ventricle was used for histological evaluation and Western blots. • Experimental Protocol 2. This protocol was designed to determine whether administration of febuxostat (FBS) or allopurinol (AL) beginning after the onset of cardiac hypertrophy, LV dysfunction and heart failure could exert a protective effect. For this protocol, mice subjected to TAC (using a 26 gauge (G) needle to generate moderate TAC) or sham surgery were divided into six experimental groups as described in Table 1, below. Beginning seven days after TAC, animals were treated with vehicle (0.01 mg/ml NaCl, equivalent salt content as in the FBS drinking water), FBS (0.05 mg/ml) or AL (0.15 mg/ml) in drinking water for three weeks. Following three weeks of treatment, ventricular function was assessed by echocardiography. Blood samples and cardiac tissue were collected during 2-3 hours after the echocardiographic evaluation as described previously in Protocol 1.
• Minimally Invasive TAC Procedure. TAC was performed using the minimally invasive suprasternal approach described by Hu et al. (See, Hu et al., Am. J. Physiol. Heart Circ. Physiol., 3:H1261-9 (2003)). Mice were anesthetized with a mixture of 80 mg/kg ketamine and 30 mg/kg xylazine intraperitoneally. A horizontal incision was made at the level of the suprasternal notch to allow direct visualization of the transverse aorta without entering the pleural space. With the aid of a dissecting microscope, aortic constriction was performed by ligating the aorta between the right innominate artery and the left carotid artery over a 27 G) needle using 5-0 silk suture. The needle was immediately removed after ligation, leaving the aortic constriction in place. The incision was closed and the animals were allowed to recover. Analgesia was provided before the mice awoke from anesthesia. Sham surgery utilized the same procedure but without aortic ligation. • Echocardiography.

[1] = 5 mg/kg/day oral gavage for 8 days from ~60 min after TAC
[2] = 8 days, versus TAC vehicle, listed as FBS

Structure (SMILES): Cc1nc(-c2ccc(OCC(C)C)c(C#N)c2)sc1C(=O)O [febuxostat, 2-[3-cyano-4-(2-methylpropoxy)phenyl]-4-methylthiazole-5-carboxylic acid]
- Anterior wall thickness at end-diastole [1]: 0.84 ± 0.02 mm
- Anterior wall thickness at end-systole [1]: 1.10 ± 0.04 mm
- LV fractional shortening [1]: 31.5 ± 2.2*^,# %
- Lung weight [1]: 163 ± 16 mg
- Posterior wall thickness at end-diastole [1]: 0.83 ± 0.02*^,# mm
- Posterior wall thickness at end-systole [1]: 1.10 ± 0.03 mm
- Ventricle weight [1]: 138 ± 7.0*^,# mg
- Cardiac myocyte diameter (8 days): 16.3±0.3 μm
- Mortality (mice died) (8 days): 14 out of 30
- Myocardial fibrosis (8 days): 8.3±2. %
- TAC-induced left ventricular (LV) hypertrophy (8 days, FIG. 1A): significantly attenuated
- TAC-induced pulmonary congestion (8 days, FIG. 1B): tended to decrease
- TAC-induced cardiac sudden death / mortality (effect) (8 days, FIG. 1C): not affected; also recorded: no effect
- TAC-induced increase of myocardial ANP (8 days, Western blot of LV): significantly attenuated
- TAC-induced increase of myocardial collagen III (8 days, Western blot of LV): significantly attenuated
- TAC-induced increase of myocardial nitrotyrosine (8 days, Western blot of LV): significantly blunted
- TAC-induced increase of myocardial pre-collagen I (8 days, Western blot of LV): significantly attenuated
- TAC-induced increase of p-Erk Thr202/204 (8 days, Western blot of LV): significantly attenuated
- TAC-induced increase of p-mTOR Ser2488 (8 days, Western blot of LV): significantly attenuated
- TAC-induced increase of t-Erk (8 days, Western blot of LV): significantly attenuated
- TAC-induced increase of myocardial nitrotyrosine (8 days, Western blot of LV, listed as FBS): significantly attenuated
- Decrease of pulmonary congestion (ratio of lung weight to body weight) (8 days, versus TAC vehicle): about 18%
- LV diameter at end-diastole (8 days, versus TAC vehicle): no significant effect
- Plasma uric acid (8 days, versus TAC vehicle): significantly decreased
- Reduction of ventricular hypertrophy (ratio of ventricular mass to body weight) (8 days, versus TAC vehicle): approximately 15%
- TAC-induced decrease of LV ejection fraction (8 days, versus TAC vehicle): attenuated
- TAC-induced decrease of LV fractional shortening (8 days, versus TAC vehicle): attenuated
- TAC-induced increase of LV diameter at end-systole (8 days, versus TAC vehicle): trend toward attenuating
- TAC-induced increase of LV end-diastolic wall thickness (8 days, versus TAC vehicle): significantly attenuated
- LV diameter at end-diastole [2]: not changed
- TAC-induced decrease of LV ejection fraction [2]: significantly attenuated
- TAC-induced increase of LV diameter at end-systole [2]: trend toward attenuation
